Read-outs that look alike come from different tables or passages of the source.

Among the data in US8148388B2, “2,4 (4,6) pyrimidine derivatives” (Janssen Pharmaceutica, N.V., priority 2004, dated 2012) are IC50, inhibition and ring closure, yield of all isomers values, retold here.

One data set addresses ErbB2 (h) (Homo sapiens, UniProt P04626). Put plainly: ErbB2 human kinase assay (filter). Type of data set: biochemical. To be noted: read-out: C13 ERBB 2 Filter Score. On the procedure: (§1) Similarly to the above the in vitro inhibition of two other kinases, i.e. human ErbB2 and human ErbB4 was tested for some of the compounds according to the invention.
(§2) In a final reaction volume of 25 μl, ErbB2 (h) (5-10 mU) is incubated with 8 mM MOPS pH 7.0, 0.2 mM EDTA, 10 mM MnCl2, 0.1 mg/ml poly(Glu, Tyr) 4:1, 10 mM MgAcetate and [γ-33P-ATP] (specific activity approx. 500 cpm/pmol, concentration as required). The reaction is initiated by the addition of the MgATP mix. After incubation for 40 minutes at room temperature, the reaction is stopped by the addition of 5 μl of a 3% phosphoric acid solution. 10 μl of the reaction is then spotted onto a Filtermat A and washed three times for 5 minutes in 75 mM phosphoric acid and once in methanol prior to drying and scintillation counting.

In the next data set the target is T1, EGFR-kinase domain (Homo sapiens, UniProt P00533).
T1 construct: 0.5 μg EGFR-kinase domain/well
Description: In vitro inhibition of EGFR (Flash Plate assay). Type of data set: biochemical. As to conditions: full dose response 1.10^−6M to 1.10^−10M, read-out: C12 EGFR flash Score. On the procedure:
The in vitro inhibition of EGFR was assessed using either the Flash Plate technology or the glass-fiber filter technology as described by Davies, S. P. et al., Biochem J. (2000), 351; p. 95-105. The Flash Plate technology is generally described by B. A. Brown et al. in High Throughput Screening (1997), p. 317-328. Editor(s): Devlin, John P. Publisher: Dekker, New York, N.Y.
In the Flash Plate EGFR kinase reaction assay, a kinase substrate consisting of biotinylated poly(L-glutamic acid-L-tyrosine) (poly(GT)biotin), is incubated with the aforementioned protein in the presence of (^33P) radiolabeled ATP. (^33P) phosphorylation of the substrate is subsequently measured as light energy emitted using a streptavidin-coated Flash Plate (PerkinElmer Life Sciences) by trapping and quantifying the binding of the biotin tagged and radiolabeled substrate.
The EGFR kinase reaction is performed at 30° C. for 60 minutes in a 96-well microtiter FlashPlate (PerkinElmer Life Sciences). For each of the tested compounds a full dose response 1.10^−6M to 1.10^−10M has been performed. IRESSA® and Tarceva™ (erlotinib) were used as reference compounds. The 100 μl reaction volume contains 54.5 mM TrisHCl pH 8.0, 10 mM MgCl2, 100 μM Na3VO4, 5.0 μM unlabeled ATP, 1 mM DTT, 0.009% BSA, 0.8 μCi AT^33P, 0.35 μg/well poly(GT)biotin and 0.5 μg EGFR-kinase domain/well.
The reaction is stopped by aspirating the reaction mixture and washing the plate 3× with 200 μl wash/stop buffer (PBS+100 mM EDTA). After the final wash step 200 μl of wash/stop buffer was added to each well and the amount of phosphorylated (^33P) Poly(GT)biotin determined by counting (30 sec/well) in a microtiterplate scintillation counter.

The target in the next data set is ErbB4 (h) (Homo sapiens, UniProt Q15303). Put plainly: ErbB4 human kinase assay (filter). Type of data set: biochemical. As to conditions: read-out: C14 ERBB 4 Filter Score. As for the experimental part:
as §1
as §2, with “ErbB4” for “ErbB2”

Another data set concerns the target Lck (h) (Homo sapiens, UniProt P06239). Put plainly: Lck human kinase assay (glass-fiber filter). Type of data set: biochemical. As to conditions: test concentration of 10^−6M; read-out: C9 score (inhibition of Lck human). The method in brief: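 Kinase activity measured as transfer of (^33P) from radiolabeled MgATP to substrate, captured on P30 glass-fiber filtermat, washed in 75 mM phosphoric acid and methanol, then scintillation counted.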

The target in the next data set is Fms (h) (Homo sapiens, UniProt P07333). Description: Fms human kinase assay (glass-fiber filter). Type of data set: biochemical. As to conditions: test concentration of 10^−6M; read-out: C7 score (inhibition of Fms human). The procedure, abridged: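 Radiometric filter-binding assay: Fms (5-10 mU) with 250 μM peptide substrate and [γ-33P]ATP in 8 mM MOPS pH 7.0, 10 mM Mg acetate, 40 min at room temperature. Reaction stopped with phosphoric acid; substrate-bound 33P counted on P30 filtermat.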

Another data set deals with Yes (h) (Homo sapiens, UniProt P07947). Description: Yes human kinase assay (glass-fiber filter). Type of data set: biochemical. To be noted: test concentration of 10^−6M; read-out: C11 score (inhibition of Yes human). The method in brief: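 Yes (h) (5-10 mU) with 0.1 mg/ml poly(Glu, Tyr) 4:1 in 8 mM MOPS pH 7.0, 0.2 mM EDTA, 10 mM MgAcetate and [γ-^33P-ATP], 40 minutes at room temperature. Stopped with phosphoric acid; substrate-bound ^33P counted on glass-fiber filter by scintillation.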

The next data set concerns the target Fes (h) (Homo sapiens, UniProt P07332). Put plainly: Fes human kinase assay (glass-fiber filter). Type of data set: biochemical. As to conditions: test concentration of 10^−6M; read-out: C4 score (inhibition of Fes human). The method in brief: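 Human Fes (5–10 mU) was incubated with 0.1 mg/ml poly(Glu,Tyr) 4:1 in 8 mM MOPS pH 7.0, 0.2 mM EDTA, 10 mM Mg acetate and [γ-33P]ATP for 40 min at room temperature. The reaction was stopped with phosphoric acid, and substrate phosphorylation was quantified by filter binding and scintillation counting.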

The target of another data set is Flt3 (h) (Homo sapiens, UniProt P36888). Description: Flt3 human kinase assay (glass-fiber filter). Type of data set: biochemical. To be noted: test concentration of 10^−6M; read-out: C6 score (inhibition of Flt3 human). The method in brief:
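Human Flt3 (5-10 mU) with 50 μM peptide substrate in 8 mM MOPS pH 7.0, 0.2 mM EDTA, 10 mM Mg acetate and [γ-33P]ATP (concentration as required), 40 min at room temperature. Reaction stopped with phosphoric acid; substrate 33P incorporation counted on P30 glass-fiber filter.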

For the next data set, the target named is Lyn (h) (Homo sapiens, UniProt P07948). Put plainly: Lyn human kinase assay (glass-fiber filter). Type of data set: biochemical. As to conditions: test concentration of 10^−6M; read-out: C10 score (inhibition of Lyn human). The method in brief: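 Human Lyn (5-10 mU) phosphorylating poly(Glu,Tyr) 4:1 at 0.1 mg/ml with [γ-33P]ATP (concentration as required) in 50 mM Tris pH 7.5, 10 mM Mg acetate, 40 min at room temperature. Stopped with phosphoric acid; substrate-bound radioactivity counted on glass-fibre filter.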

Another data set concerns the target cSRC (h) (Homo sapiens, UniProt P12931). Description: cSRC human kinase assay (glass-fiber filter). Type of data set: biochemical. As to conditions: test concentration of 10^−6M; read-out: C3 score (inhibition of cSRC human). The method in brief: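 Radiometric assay: kinase and substrate are incubated with [33P]ATP, with the reaction started by MgATP mix. The reaction is spotted on P30 filtermat, washed in 75 mM phosphoric acid and methanol, and the bound 33P is measured by scintillation counting.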

The next data set concerns the target Abl (h) (Homo sapiens, UniProt P00519). Put plainly: Abl human kinase assay (glass-fiber filter). Type of data set: biochemical. As to conditions: test concentration of 10^−6M; read-out: C1 score (inhibition of Abl human).

T1 sequence (P00533 712-979 limits assumed): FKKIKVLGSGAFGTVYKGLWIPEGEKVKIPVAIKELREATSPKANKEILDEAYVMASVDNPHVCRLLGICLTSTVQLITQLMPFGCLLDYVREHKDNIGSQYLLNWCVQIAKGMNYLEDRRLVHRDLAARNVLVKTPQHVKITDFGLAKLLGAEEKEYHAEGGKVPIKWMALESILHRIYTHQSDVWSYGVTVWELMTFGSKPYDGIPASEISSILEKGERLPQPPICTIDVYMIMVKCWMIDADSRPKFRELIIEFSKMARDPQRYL
ErbB4 (h), sequence (Q15303 26-1308): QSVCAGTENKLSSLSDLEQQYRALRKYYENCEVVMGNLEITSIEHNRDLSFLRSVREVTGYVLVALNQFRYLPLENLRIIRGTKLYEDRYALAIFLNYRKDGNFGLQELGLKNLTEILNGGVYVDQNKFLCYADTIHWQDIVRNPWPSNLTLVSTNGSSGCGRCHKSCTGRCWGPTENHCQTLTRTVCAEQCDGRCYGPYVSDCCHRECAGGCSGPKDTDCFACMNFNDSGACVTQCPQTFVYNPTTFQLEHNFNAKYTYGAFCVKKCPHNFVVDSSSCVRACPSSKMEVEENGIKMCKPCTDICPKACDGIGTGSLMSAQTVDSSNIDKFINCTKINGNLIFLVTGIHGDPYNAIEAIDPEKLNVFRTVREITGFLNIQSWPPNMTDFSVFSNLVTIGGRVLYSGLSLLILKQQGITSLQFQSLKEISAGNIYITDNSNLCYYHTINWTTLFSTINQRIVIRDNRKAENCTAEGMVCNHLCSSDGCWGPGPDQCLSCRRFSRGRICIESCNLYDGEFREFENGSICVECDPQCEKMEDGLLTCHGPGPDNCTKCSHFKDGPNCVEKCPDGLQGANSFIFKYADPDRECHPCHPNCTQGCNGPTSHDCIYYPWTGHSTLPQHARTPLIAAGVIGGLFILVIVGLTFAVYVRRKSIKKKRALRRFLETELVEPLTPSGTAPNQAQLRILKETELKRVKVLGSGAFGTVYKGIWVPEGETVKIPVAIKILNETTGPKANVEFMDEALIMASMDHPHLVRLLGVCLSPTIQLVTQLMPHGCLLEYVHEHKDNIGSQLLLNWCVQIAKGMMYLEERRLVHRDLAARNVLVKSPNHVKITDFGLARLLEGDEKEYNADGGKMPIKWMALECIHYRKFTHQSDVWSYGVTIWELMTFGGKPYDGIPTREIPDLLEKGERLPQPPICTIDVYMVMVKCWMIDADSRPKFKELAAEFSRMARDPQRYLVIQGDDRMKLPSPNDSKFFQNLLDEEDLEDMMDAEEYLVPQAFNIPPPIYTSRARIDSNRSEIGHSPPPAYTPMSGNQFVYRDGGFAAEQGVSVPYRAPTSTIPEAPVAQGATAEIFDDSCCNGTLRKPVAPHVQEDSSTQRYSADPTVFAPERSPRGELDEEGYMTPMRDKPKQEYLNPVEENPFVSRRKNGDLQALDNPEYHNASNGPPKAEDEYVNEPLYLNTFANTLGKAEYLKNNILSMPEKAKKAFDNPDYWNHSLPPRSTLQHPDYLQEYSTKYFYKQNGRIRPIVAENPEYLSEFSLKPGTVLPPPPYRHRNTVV
ErbB2 (h), sequence (P04626 23-1255): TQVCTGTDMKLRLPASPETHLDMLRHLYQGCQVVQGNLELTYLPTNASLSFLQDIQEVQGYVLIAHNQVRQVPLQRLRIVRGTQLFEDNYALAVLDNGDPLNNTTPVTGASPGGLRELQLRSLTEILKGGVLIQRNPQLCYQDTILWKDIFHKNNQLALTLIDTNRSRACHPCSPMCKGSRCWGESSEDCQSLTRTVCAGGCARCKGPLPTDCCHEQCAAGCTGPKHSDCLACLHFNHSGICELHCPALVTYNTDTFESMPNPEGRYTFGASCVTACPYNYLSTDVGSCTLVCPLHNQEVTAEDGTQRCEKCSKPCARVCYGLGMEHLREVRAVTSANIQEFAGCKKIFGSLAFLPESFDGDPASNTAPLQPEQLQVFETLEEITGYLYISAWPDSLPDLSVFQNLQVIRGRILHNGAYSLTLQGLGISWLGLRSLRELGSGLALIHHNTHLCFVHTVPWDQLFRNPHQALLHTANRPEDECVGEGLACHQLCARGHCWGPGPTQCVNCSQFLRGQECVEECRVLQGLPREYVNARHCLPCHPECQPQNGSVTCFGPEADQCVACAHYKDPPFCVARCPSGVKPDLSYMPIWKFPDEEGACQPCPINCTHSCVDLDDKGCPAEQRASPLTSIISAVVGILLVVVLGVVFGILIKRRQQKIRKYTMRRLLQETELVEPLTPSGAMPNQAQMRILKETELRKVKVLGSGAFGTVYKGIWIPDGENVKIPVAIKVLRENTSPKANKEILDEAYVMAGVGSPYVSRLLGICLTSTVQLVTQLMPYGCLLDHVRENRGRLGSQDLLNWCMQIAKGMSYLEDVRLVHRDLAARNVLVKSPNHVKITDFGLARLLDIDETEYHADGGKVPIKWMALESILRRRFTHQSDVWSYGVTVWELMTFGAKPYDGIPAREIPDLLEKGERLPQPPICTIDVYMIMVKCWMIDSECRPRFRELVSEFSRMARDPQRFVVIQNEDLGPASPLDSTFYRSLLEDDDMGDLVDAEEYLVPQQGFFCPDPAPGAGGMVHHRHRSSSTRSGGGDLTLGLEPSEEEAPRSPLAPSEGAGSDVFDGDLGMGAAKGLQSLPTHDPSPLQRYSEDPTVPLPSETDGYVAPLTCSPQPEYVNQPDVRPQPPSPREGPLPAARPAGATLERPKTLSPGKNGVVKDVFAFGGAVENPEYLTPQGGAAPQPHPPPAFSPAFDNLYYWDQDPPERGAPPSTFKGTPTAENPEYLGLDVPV
Flt3 (h), sequence (P36888 27-993): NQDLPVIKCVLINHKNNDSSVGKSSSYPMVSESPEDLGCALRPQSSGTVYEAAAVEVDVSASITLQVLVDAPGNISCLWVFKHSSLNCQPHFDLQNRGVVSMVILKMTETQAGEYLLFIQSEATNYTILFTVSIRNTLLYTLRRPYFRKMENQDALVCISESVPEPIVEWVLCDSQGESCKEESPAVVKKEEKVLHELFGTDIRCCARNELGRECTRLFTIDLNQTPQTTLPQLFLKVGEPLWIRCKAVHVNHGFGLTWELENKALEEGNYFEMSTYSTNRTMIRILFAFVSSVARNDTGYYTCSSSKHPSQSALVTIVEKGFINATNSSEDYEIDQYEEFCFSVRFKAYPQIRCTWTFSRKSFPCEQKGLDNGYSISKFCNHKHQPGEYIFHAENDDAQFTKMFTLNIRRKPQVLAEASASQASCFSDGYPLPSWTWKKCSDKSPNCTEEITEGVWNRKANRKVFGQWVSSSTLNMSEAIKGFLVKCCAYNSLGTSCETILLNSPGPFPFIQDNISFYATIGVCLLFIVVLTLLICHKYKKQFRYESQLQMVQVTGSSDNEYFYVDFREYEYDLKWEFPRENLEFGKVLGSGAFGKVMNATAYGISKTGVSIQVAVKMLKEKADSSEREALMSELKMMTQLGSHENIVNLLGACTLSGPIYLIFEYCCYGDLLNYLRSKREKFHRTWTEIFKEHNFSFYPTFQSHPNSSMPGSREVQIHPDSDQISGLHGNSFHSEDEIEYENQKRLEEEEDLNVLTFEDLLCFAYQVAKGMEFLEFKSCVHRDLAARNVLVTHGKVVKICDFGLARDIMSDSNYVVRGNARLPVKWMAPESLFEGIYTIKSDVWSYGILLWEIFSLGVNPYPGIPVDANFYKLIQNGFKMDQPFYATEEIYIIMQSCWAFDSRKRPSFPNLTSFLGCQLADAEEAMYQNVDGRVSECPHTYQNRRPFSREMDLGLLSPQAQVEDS
Fms (h), sequence (P07333 20-972): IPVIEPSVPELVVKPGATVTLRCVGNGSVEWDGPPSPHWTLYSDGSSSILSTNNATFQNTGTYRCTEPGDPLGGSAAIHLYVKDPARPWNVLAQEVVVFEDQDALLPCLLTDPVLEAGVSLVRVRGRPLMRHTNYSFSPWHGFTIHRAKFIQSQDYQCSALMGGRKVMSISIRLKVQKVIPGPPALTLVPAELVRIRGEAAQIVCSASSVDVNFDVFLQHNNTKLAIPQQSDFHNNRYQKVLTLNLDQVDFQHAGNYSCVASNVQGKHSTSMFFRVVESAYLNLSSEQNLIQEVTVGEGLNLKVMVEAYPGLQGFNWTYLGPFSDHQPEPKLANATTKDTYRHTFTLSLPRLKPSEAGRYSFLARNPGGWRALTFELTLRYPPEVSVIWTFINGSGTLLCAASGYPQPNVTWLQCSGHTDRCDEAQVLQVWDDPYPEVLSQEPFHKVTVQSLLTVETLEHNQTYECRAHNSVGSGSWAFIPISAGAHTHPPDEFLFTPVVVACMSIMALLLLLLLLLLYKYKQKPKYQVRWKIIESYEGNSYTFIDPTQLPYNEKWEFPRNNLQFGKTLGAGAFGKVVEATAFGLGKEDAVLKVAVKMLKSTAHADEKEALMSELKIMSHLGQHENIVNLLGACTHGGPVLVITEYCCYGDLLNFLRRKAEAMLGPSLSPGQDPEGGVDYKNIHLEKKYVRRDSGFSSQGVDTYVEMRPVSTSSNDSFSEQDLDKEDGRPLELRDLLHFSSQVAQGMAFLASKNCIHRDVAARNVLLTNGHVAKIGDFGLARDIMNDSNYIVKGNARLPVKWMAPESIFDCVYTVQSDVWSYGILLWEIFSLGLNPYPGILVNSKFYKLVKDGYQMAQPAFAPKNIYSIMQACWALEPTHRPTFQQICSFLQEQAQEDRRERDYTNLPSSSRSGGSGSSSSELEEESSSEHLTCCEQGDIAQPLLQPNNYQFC

For the molecule `C#CCC1NC(=O)CN(C)Cc2cccc(c2)Nc2cc(ncn2)Nc2cccc(c2)CNC1=O` (stereo not drawn) [Compound 150], the IC50 at ErbB2 (h), on EGFR-kinase domain and at ErbB4 (h) was below 1 µM throughout.

In the case of `CCN1CCNC(=O)COc2cccc(c2)Nc2cc(ncn2)Nc2cccc(c2)C1` [Compound 161], the values for the IC50 on ErbB2 (h), at EGFR-kinase domain and at ErbB4 (h) were 1 to 10 µM, below 1 µM and below 1 µM, respectively.

What is called inhibition is the share of the control response that was lost under treatment. Regarding `O=C1COc2cccc(c2)Nc2nccc(n2)Nc2cccc(c2)OCCCCN1` [Compound 4, 14,22-dioxa-2,4,8,19,29-pentaazatetracyclo[21.3.1.1˜3,7˜.1˜9,13˜]nonacosa-1(27),3,5,7(29),9,11,13(28),23,25-nonaen-20-one], the inhibition at 1 µM at Lck (h) is 30 to 60%; at Fms (h), 60 to 80%; on Yes (h), 30 to 60%; on Fes (h), 30 to 60%; on Flt3 (h) it was above 80%; on Lyn (h) it was 10 to 30%. The inhibition at 1 µM lay in the range of 30 to 60% at cSRC (h) and 10 to 30% on Abl (h). This molecule had a ring closure, yield of all isomers (from NCCCCOc1cccc(Nc2ccnc(Nc3cccc(OCC(=O)O)c3)n2)c1, amide bond, HBTU, DMF, 7.67 mM, 25.0 °C, 2.0 h) of 9%.

`O=C1CN2CCN(CC2)Cc2cccc(c2)Nc2cc(ncn2)Nc2cccc(c2)OCCCCCN1` [Compound 112]: the IC50 on ErbB2 (h), on EGFR-kinase domain and on ErbB4 (h) was below 1 µM each time.

In the case of `CCN1CCNC(=O)C(Cc2ccc(C(F)(F)F)cc2)NC(=O)CN(C)Cc2cccc(c2)Nc2cc(ncn2)Nc2cccc(c2)C1` (stereo not drawn) [Compound 156], the values for the IC50 at ErbB2 (h), on EGFR-kinase domain and on ErbB4 (h) were 1 to 10 µM, below 1 µM and below 1 µM, respectively.

As to `COc1ccc2cc1OCCNC(=O)COc1cccc(c1)Nc1cc(ncn1)N2` [Compound 162], the IC50 on ErbB2 (h) is 1 to 10 µM; at EGFR-kinase domain it was below 1 µM; on ErbB4 (h), 1 to 10 µM.

Take `O=C1CN2CCN(CC2)Cc2cccc(c2)Nc2cc(ncn2)Nc2cccc(c2)CCN1` [Compound 164]: the IC50 at ErbB2 (h) was 1 to 10 µM; on ErbB4 (h), below 1 µM.

Take `CN1CC(=O)NC(CCc2ccccc2)C(=O)NCc2cccc(c2)Nc2cc(ncn2)Nc2cccc(c2)C1` (stereo not drawn) [Compound 152]: the IC50 on ErbB2 (h), at EGFR-kinase domain and on ErbB4 (h) was below 1 µM throughout.

The molecule `COc1ccc2cc1OCCNC(=O)C(Cc1ccccc1)NCc1cccc(c1)Nc1cc(ncn1)N2` (stereo not drawn) registered a ring closure, yield of all isomers (from COc1ccc(Nc2cc(Nc3cccc(CNC(Cc4ccccc4)C(=O)O)c3)ncn2)cc1OCCN, amide bond, HBTU, DMF, 3.85 mM, 1.0 h) of 14%.

In the case of `CN1CC(=O)N2CCC2C(=O)NCc2cccc(c2)Nc2cc(ncn2)Nc2cccc(c2)C1` (stereo not drawn) [Compound 151], the IC50 at ErbB2 (h), at EGFR-kinase domain and at ErbB4 (h) was below 1 µM in each case.

Take `CN(C)CCCCC1NC(=O)CN(C)Cc2cccc(c2)Nc2cc(ncn2)Nc2cccc(c2)CNC1=O` (stereo not drawn) [Compound 148]: the IC50 on ErbB2 (h) is 1 to 10 µM; at EGFR-kinase domain, below 1 µM; on ErbB4 (h) it was 1 to 10 µM.

Turning to `CN(C)CCCCC1NC(=O)CN(C)Cc2cccc(c2)Nc2cc(ncn2)Nc2cccc(c2)CN2CCN(CC2)C1=O` (stereo not drawn) [Compound 159], the figures for the IC50 on ErbB2 (h) and at EGFR-kinase domain were 1 to 10 µM and below 1 µM, respectively.

As to `O=C1COc2cccc(c2)Nc2cc(ncn2)Nc2cccc(c2)CCN1` [Compound 160], the IC50 at ErbB2 (h) is 1 to 10 µM; at EGFR-kinase domain, below 1 µM; on ErbB4 (h) it was 1 to 10 µM.

For `COc1ccc2cc1OCCCNC(=O)CCN1CCC(CC1)N(C)Cc1ccc(Cl)c(c1)Nc1cc(ncn1)N2` [Compound 216], at ErbB4 (h), the IC50 lay in the range of 1 to 10 µM.

In turn, `COCCOc1ccc2cc1OCCCCCN(C)Cc1cc(F)c(Cl)cc1Nc1cc(ncn1)N2` registered a ring closure, yield of all isomers (from COCCOc1ccc(Nc2cc(Nc3cc(Cl)c(F)cc3CN(C)CCCCCO)ncn2)cc1O, ether bond, 1,1'-(azodicarbonyl)dipiperidine (ADDP)/tributylphosphine, THF, 28.6 mM, 25.0 °C, 64.0 h) of 44%.

In the case of `N#Cc1cnc2nc1Nc1cccc(c1)C(=O)NCC(=O)NCc1cccc(c1)N2` [Compound 5, 2,4,8,15,18,26-hexaazatetracyclo[18.3.1.1˜3,7˜.1˜9,13˜]hexacosa-1(24),3,5,7(26),9,11,13(25),20,22-nonaene-6-carbonitrile, 14,17-dioxo-], the inhibition at 1 µM on Flt3 (h) was 10 to 30%. The molecule also displayed a ring closure, yield of all isomers (from N#Cc1cnc(Nc2cccc(CNC(=O)CN)c2)nc1Nc1cccc(C(=O)O)c1, amide bond, HBTU, DMF, 22.5 mM, 25.0 °C, 3.0 h) of 14%.

On to `CC(C)CC1NC(=O)CN(C)Cc2cccc(c2)Nc2cc(ncn2)Nc2cccc(c2)CNC1=O` (stereo not drawn) [Compound 149], for which the IC50 was 1 to 10 µM on ErbB2 (h), below 1 µM at EGFR-kinase domain and below 1 µM at ErbB4 (h).
